Source: patent US9334246B2, “Substituted triazines for malaria treatment and chemoprophylaxis” (The United States of America, as represented by the …, priority 2013, dated 2016)

Key:
[1] = tested on: P. falciparum D6; assay: Malaria SYBR Green Fluorescence Assay, D6 strain; type: cell-based, Plasmodium falciparum; details: for D6: SYBR Green Assay
[2] = tested on: P. falciparum W2; assay: Malaria SYBR Green Fluorescence Assay, W2 strain; type: cell-based, Plasmodium falciparum; details: for W2: SYBR Green Assay
[3] = tested on: P. falciparum C235; assay: Malaria SYBR Green Fluorescence Assay, C235 strain; type: cell-based, Plasmodium falciparum; details: for C235: SYBR Green Assay
[4] = molecular target: hERG potassium ion channel (Homo sapiens, UniProt Q12809); assay: hERG patch clamp assay (% inhibition at 10 μM); details: for hERG (% inhibition): 10 μM
Chain of hERG potassium ion channel (Q12809 whole entry): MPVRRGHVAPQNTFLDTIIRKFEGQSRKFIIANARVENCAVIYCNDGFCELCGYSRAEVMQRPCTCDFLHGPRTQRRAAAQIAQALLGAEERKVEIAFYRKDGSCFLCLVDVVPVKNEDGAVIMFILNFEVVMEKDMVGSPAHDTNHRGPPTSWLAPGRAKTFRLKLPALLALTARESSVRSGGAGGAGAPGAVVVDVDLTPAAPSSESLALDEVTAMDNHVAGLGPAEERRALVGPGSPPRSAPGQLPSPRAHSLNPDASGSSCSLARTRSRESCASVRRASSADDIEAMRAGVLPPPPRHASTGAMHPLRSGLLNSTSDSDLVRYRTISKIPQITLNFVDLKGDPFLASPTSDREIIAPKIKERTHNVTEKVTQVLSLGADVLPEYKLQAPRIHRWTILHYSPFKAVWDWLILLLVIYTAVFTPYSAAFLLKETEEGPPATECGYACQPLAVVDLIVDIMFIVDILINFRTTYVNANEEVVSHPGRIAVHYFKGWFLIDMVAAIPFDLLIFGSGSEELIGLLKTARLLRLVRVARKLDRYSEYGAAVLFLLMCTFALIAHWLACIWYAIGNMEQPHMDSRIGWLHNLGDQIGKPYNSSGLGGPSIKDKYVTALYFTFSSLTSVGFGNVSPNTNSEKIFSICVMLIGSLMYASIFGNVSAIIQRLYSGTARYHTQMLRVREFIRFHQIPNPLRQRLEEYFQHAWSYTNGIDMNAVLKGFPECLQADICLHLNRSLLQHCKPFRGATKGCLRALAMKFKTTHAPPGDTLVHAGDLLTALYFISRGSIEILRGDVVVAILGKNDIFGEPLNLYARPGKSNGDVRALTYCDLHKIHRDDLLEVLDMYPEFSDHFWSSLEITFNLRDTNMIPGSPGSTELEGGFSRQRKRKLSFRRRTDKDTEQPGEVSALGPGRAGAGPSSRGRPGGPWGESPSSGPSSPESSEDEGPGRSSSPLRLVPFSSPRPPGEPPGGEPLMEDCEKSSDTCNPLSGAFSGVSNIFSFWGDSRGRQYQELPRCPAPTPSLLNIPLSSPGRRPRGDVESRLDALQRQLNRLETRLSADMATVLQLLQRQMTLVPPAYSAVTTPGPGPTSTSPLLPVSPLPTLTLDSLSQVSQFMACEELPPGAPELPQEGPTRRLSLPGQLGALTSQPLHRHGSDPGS

[5] = % inhibition at 10 μM, patch clamp

Compound	D6 [1] [ng/mL]	W2 [2] [ng/mL]	C235 [3] [ng/mL]	hERG [4, 5] [%]	hERG ([4]; hERG activity as % inhibition) [%]	D6 (SYBR Green Assay IC50) [1] [µg/mL]	W2 (SYBR Green Assay IC50) [2] [µg/mL]	C235 (SYBR Green Assay IC50) [3] [µg/mL]	hERG (% inhibition) [4] [%]
CN1CCCC1CCNc1nc(Nc2ccccc2N2CCOCC2)nc(C(Cl)(Cl)Cl)n1 (stereo not drawn) [Cmpd 64]	140	75	121	100	–	–	–	–	–
3-(4-((3-(dimethylamino)propyl)amino)-6-(trichloromethyl)-1,3,5-triazin-2-yl)benzoic acid [Example 11]	588	475	592	–	15	–	–	–	–
COc1ccccc1-c1nc(NCC(C)(C)N)nc(C(Cl)(Cl)Cl)n1 [Cmpd 217]	43	20	20	62	–	–	–	–	–
CCN1CCC(CC1)C(C)Nc2nc(Nc3cc(Cl)cc(Cl)c3)nc(n2)C(Cl)(Cl)Cl [Compound 645]	–	–	–	–	–	0.07911	0.0375	0.05886	75
tert-butyl 5-(4-(4-chlorophenyl)-6-(trichloromethyl)-1,3,5-triazin-2-yl)-2,5-diazabicyclo[2.2.1]heptane-2-carboxylate [Example 6]	33	26	44	96	–	–	–	–	–
CN1CCC(Nc2nc(-c3cccc(C(F)(F)F)c3)nc(C(Cl)(Cl)Cl)n2)CC1 [Cmpd 212]	45	16	25	80	–	–	–	–	–
ClC(C1═NC(NCCO)═NC(C2═CC(C(F)(F)F)═CC═C2)═N1)(Cl)Cl [Compound 647]	–	–	–	–	–	0.035	0.023	0.039	100
Clc1ccc(-c2nc(NCCc3ccccn3)nc(C(Cl)(Cl)Cl)n2)cc1 [Cmpd 140]	106	32	136	11	–	–	–	–	–
ClC(Cl)(Cl)c1nc(NCCN2CCCC2)nc(-c2ccc(-c3ccccc3)cc2)n1 [Cmpd 196]	31	25	30	53	–	–	–	–	–
CS(=O)(=O)c1ccc(-c2nc(NCCN3CCCC3)nc(C(Cl)(Cl)Cl)n2)cc1 [Cmpd 39]	85	45	92	90	–	–	–	–	–
CN(C)CCCNc1nc(Nc2ccc(Cl)c(Cl)c2)nc(n1)C(Cl)(Cl)Cl [Compound 637]	–	–	–	–	–	0.017	0.013	0.02	103
CSc1ccc(-c2nc(NCCC3CCCN3C)nc(C(Cl)(Cl)Cl)n2)cc1 (stereo not drawn) [Cmpd 45]	43	91	74	38	–	–	–	–	–
CC(CN(C)C)Nc1nc(Nc2cc(Cl)cc(Cl)c2)nc(n1)C(Cl)(Cl)Cl [Compound 639]	–	–	–	–	–	0.013	0.007	0.009	25
NC1(CNc2nc(-c3cccc(C(F)(F)F)c3)nc(C(Cl)(Cl)Cl)n2)CCOCC1 [Cmpd 315]	3	1	8	36	–	–	–	–	–
CCN(CC)CC(C)Nc1nc(Nc2ccc(Cl)c(Cl)c2)nc(n1)C(Cl)(Cl)Cl [Compound 642]	–	–	–	–	–	0.005	0.003	0.013	76
CN1CCC(Nc2nc(-c3ccccc3)nc(C(Cl)(Cl)Cl)n2)CC1 [Cmpd 237]	47	32	31	107	–	–	–	–	–
Clc1cc(Cl)cc(-c2nc(NCCN3CCCC3)nc(C(Cl)(Cl)Cl)n2)c1 [Cmpd 202]	7	10	7	51	–	–	–	–	–

Compound	D6 [1] [ng/mL]	W2 [2] [ng/mL]	C235 [3] [ng/mL]	hERG [4, 5] [%]	hERG ([4]; hERG activity as % inhibition) [%]	D6 (SYBR Green Assay IC50) [1] [µg/mL]	W2 (SYBR Green Assay IC50) [2] [µg/mL]	C235 (SYBR Green Assay IC50) [3] [µg/mL]	hERG (% inhibition) [4] [%]
Cc1cc(CNc2nc(nc(n2)C(Cl)(Cl)Cl)c3ccc(Cl)c(Cl)c3)n(C)n1 [Compound 708]	319.7	75.2	221	–	12.2	–	–	–	–
CC(C)(C)c1ccc(-c2nc(NCCCN3CCCC3)nc(C(Cl)(Cl)Cl)n2)cc1 [Cmpd 34]	152	141	152	80.9	–	–	–	–	–
CCC(N)(CC)CNc1nc(-c2ccc3ccccc3c2)nc(C(Cl)(Cl)Cl)n1 [Cmpd 377]	–	–	–	–	–	0.002	0.006	0.008	25
CCN(CC)CCNc1nc(Cc2ccc(OC)cc2)nc(C(Cl)(Cl)Cl)n1 [Cmpd 59]	290	153	288	100	–	–	–	–	–
CCC(N)(CC)CNc1nc(-c2ccc(-c3ccccc3)cc2)nc(C(Cl)(Cl)Cl)n1 [Cmpd 364]	–	–	–	–	–	0.003	0.004	0.006	25
ClC(Cl)(Cl)c1nc(nc(n1)c2ccccc2)N3CC4CC3CN4 [Compound 720]	56	35	89	–	84	–	–	–	–
CCN1CCC(CNc2nc(-c3ccc(-c4ccccc4)cc3)nc(C(Cl)(Cl)Cl)n2)CC1 [Cmpd 306]	54	30	87	38	–	–	–	–	–
COc1ccc(cc1)c2nc(nc(n2)C(Cl)(Cl)Cl)N3CC4CC3CN4 [Compound 718]	278.6	77.35	139.2	–	23.5	–	–	–	–
COc1ccc(Cc2nc(NCCN3CCCC3C)nc(C(Cl)(Cl)Cl)n2)cc1 (stereo not drawn) [Cmpd 89]	805	718	991	50	–	–	–	–	–
COc1ccccc1Nc1nc(N2CCN(C)CC2)nc(C(Cl)(Cl)Cl)n1 [Cmpd 65]	32	32	31	83	–	–	–	–	–
CCN(CC)CC(C)Nc1nc(Nc2cc(Cl)cc(Cl)c2)nc(n1)C(Cl)(Cl)Cl [Compound 644]	–	–	–	–	–	0.131	0.009	0.014	100
CN1CCN(c2nc(-c3ccc(Cl)cc3)nc(C(Cl)(Cl)Cl)n2)CC1 [Cmpd 29]	307	173	351	5	–	–	–	–	–
CCN(CC)CCNc1nc(Cc2ccccc2OC)nc(C(Cl)(Cl)Cl)n1 [Cmpd 70]	6	6	6	100	–	–	–	–	–
CCN(CC)CCNc1nc(-c2ccc3ccccc3c2)nc(C(Cl)(Cl)Cl)n1 [Cmpd 220]	40	8	12	66	–	–	–	–	–
COc1cccc(-c2nc(NCCN3CCCC3)nc(C(Cl)(Cl)Cl)n2)c1 [Cmpd 192]	18	13	12	100	–	–	–	–	–
Clc1ccc(-c2nc(N3CCNCC3)nc(C(Cl)(Cl)Cl)n2)cc1Cl [Cmpd 25]	–	–	–	10	–	–	–	–	–
